Data on four compounds can be found in patent US4992437A, “Thienodiazepine compounds and their pharmaceutical use” (Yoshitomi Pharmaceutical Industries, Ltd., priority 1987, dated 1991).

One may read the IC50 as the midpoint of a concentration-inhibition curve.

The nature of one series: Acute toxicity test. To be noted: oral; 6 male mice; observed for consecutive 5 days. In kind it is in vivo. The source says: The acute toxicity of the compounds of the present invention was studied with the use of 6 male mice.
The target of the next series is T1, CCK receptor (brain).
T1 construct: Brain; from tissue
Nature of the series: CCK receptor-binding, brain (125I-CCK-8).

In the next series the test system is CCK-8. Kind of series: Effects on gastric excreting capability (Gastric emptying test), CCK-8 challenge. Type of series: in vivo, male ddY mice. As for the experimental part: At 5 minutes' lapse thereafter, 0.1 ml of a 1.5% aqueous solution of methyl cellulose containing 0.05% phenolred (Sigma) was orally administered. After 15 minutes, the stomach was extracted and the gastric contents were mixed with a 10% aqueous solution of trichloroacetic acid. After the removal of the proteins, the residue was centrifuged at 3000 rpm for 10 minutes. To the supernatant was added a 1N solution of sodium hydroxide and the mixture was again centrifuged. Thereafter, OD560 value of the supernatant was measured by the spectrophotometer (Hitachi 200-10 type) to estimate the minimum effective dose (MED).

The next series concerns the target T2, CCK receptor (pancreas) (Canis lupus familiaris, UniProt Q5D0K2).
T2 construct: from tissue; host or cells: dog pancreas membranes (whole pancreas, homogenized and centrifuged)
T2 sequence (Q5D0K2 1-428): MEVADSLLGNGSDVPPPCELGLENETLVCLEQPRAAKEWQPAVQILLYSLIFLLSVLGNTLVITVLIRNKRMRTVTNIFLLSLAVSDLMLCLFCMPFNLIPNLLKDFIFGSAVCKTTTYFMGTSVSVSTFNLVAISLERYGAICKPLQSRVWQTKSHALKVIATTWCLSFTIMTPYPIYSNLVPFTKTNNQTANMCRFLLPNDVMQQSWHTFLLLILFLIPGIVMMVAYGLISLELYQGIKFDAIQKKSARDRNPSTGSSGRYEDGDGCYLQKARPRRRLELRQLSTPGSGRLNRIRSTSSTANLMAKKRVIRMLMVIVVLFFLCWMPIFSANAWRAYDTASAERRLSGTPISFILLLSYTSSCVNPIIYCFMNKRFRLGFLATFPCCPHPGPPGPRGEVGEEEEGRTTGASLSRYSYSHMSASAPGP
Nature of the series: CCK receptor-binding, pancreas (125I-CCK-8). Further details: species or system male mongrel adult dog. The procedure: The entire pancreas of a male mongrel adult dog was extracted and the fat tissues thereof were removed. The residual portion was homogenized in 50 mM tris hydrochloride (pH 7.5) (Blinkman·Polytron PT20). After the filtration with nylon cloth (120 mesh) followed by centrifugation (50,000×g, for 12 minutes), the obtained sediment was homogenized in a tris buffer solution in the same manner as mentioned above and the homogenate was centrifuged. The obtained sediment was suspended in a buffer solution for binding assay (5 mM magnesium chloride, chloride, 5 mM dithiothreitol, 2 mg/ml bovine serum albumin, 0.1 mg/ml bacitracin, and 50 mM tris hydrochloride, pH 7.2), containing 0.14 mg/ml trypsin-inhibitor (soy bean), and the suspension was used as the receptor source.

Setting [1] is: pancreas membranes of dog, 125I-CCK-8, 20° C., 30 minutes, read-out: CCK binding, IC50 Pancreas.

Like-named read-outs stand apart in the source and are kept apart here.

T1 sequence (P32239 whole entry): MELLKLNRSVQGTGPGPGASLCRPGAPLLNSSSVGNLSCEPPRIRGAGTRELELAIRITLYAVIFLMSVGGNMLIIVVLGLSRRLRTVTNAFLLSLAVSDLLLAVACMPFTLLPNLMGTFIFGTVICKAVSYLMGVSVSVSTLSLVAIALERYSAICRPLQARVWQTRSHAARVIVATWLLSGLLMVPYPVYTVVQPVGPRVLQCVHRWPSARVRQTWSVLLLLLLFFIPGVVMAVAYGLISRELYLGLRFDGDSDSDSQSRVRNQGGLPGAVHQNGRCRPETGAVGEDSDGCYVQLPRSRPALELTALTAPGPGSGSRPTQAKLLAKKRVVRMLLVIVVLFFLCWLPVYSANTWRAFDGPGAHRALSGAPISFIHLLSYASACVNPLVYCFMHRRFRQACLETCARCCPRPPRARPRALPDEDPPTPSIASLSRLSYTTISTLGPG

Consider `CCc1cc2c(s1)-n1c(C)nnc1C(NC(=O)c1cc3ccccc3[nH]1)N=C2c1ccccc1Cl` (stereo not shown) [Compound A, 4-(2-Chlorophenyl)-2-ethyl-6-(2-indolecarboxamido)-9-methyl-6H-thieno[3,2-f][1,2,4]triazolo[4,3-a][1,4]diazepine], for which the acute toxicity entry in “Acute toxicity test” is “low toxicity”. The IC50 at CCK receptor (brain) amounted to 1.8 nM; at CCK receptor (pancreas) it was 0.6 nM. The minimal effective dose at 0.03 mg/kg in the series on CCK-8 (Mus musculus, po, 25 min; read-out: Gastric Emptying MED (minimum effective dose)) is 0.3 to 1 mg/kg.

For the compound `CN1C(=O)C(NC(=O)c2cc3ccccc3[nH]2)N=C(c2ccccc2)c2ccccc21` [Example L-364718, N-(2,3-Dihydro-1-methyl-2-oxo-5-phenyl-1H-1,4-benzodiazepin-3-yl)-1H-indole-2-carboxamide, reference compound], in the series on CCK-8 (Mus musculus, po, 25 min, read-out: Gastric Emptying MED (minimum effective dose)), the minimal effective dose at 0.03 mg/kg is 0.1 to 0.3 mg/kg.

Regarding CCK-4, on CCK receptor (pancreas) (setting [1]), the IC50 was found to be 800 nM.

As to “CCK-8: CCK-8 which consists of the 8 amino acids at the C terminus of CCK”, the IC50 with CCK receptor (pancreas) (setting [1]) was determined as 0.6 nM.
